The subject of series [1] is Rhopalosiphum padi (cereal aphid). The series can be described thus: Activity against Rhopalosiphum padi (cereal aphid) on sprayed wheat plants, % mortality (Abbott). An excerpt: Activity Against Rhopalosiphum padi (Cereal Aphid) and Crop Safety
The experiment was divided into two parts, one half of the plants was used for the aphid bioassay the other half was not infested with aphids and kept for plant growth evaluation. One replicate consisted of 4 wheat plants per pot. 5 replicates were infested with a mixed population of cereal aphids 6 days after seeding. 9 days after seeding all wheat plants (10 replicates) were sprayed with respective test solutions. Test solutions contained the formulated test compound (25 ppm), the adjuvant Mero (0.1% v/v), and the plant growth regulator (PGR) CCC (chlormequat-chloride, Cyclocel®) or trinexapac ethyl (Moddus®). 6 and 17d after application aphid mortality and phytotoxicity were evaluated. Efficacy was calculated with the aid of Abbott's formula. Assessment on phytotoxicity was done by counting the number of leaves bent down due to necrosis per pot. Additionally the average plant height per replicate was measured.

For series [2], the system named is Nilaparvata lugens (brown plant hopper, BPH). The series can be described thus: Activity against Nilaparvata lugens (brown plant hopper, BPH) on sprayed rice plants, % mortality (Abbott). Type of series: in vivo. The note with it: 168 h. The method, then: Eight replicates (pots with rice plants) were sprayed with respective test solutions. Test solutions contained the formulated test compound and the PGR Moddus® at different ratios. 4 pots were infested with plant hopper nymphs right after application. 7d after application BPH mortality and phytotoxicity were evaluated.

These results are taken from patent US9018135B2, “Pesticidal compositions” (Syngenta Participations AG, priority 2010, dated 2015).

For orientation: melting point means the temperature of the solid-liquid transition.

Like-named read-outs stand apart in the source and are kept apart here.

Molecule `CON1CCC2(CC1)C(O)=C(c1cc(C)c(C)cc1Cl)C(=O)N2C` registered a melting point of 191 to 192 °C. In turn, `CON1CCC2(CC1)C(O)=C(c1cc(C)ccc1C)C(=O)N2C` yielded a melting point of 121 to 123 °C. Consider `CCOC(=O)OC1=C(c2c(C)cc(C)cc2C)C(=O)N(C)C12CCN(OC)CC2` [P1.2, Carbonic acid ethyl ester 8-methoxy-1-methyl-2-oxo-3-(2,4,6-trimethyl-phenyl)-1,8-diaza-spiro[4.5]dec-3-en-4-yl ester], for which the “Efficacy (% mortality) against cereal aphids (Rhopalosiphum padi), 6 DAA” value is listed as 97% in series [1] (test compound 25 ppm + Mero 0.1% v/v, tank mix with PGR Cycocel, ratio AI:PGR 1:20, 6 DAA); 94% in series [1] (test compound 25 ppm + Mero 0.1% v/v, tank mix with PGR Moddus, ratio AI:PGR 1:10, 6 DAA); 97% in series [1] (test compound 25 ppm + adjuvant Mero 0.1% v/v, no PGR, 6 days after application, Abbott). For the same molecule, the “Efficacy (% mortality) against cereal aphids (Rhopalosiphum padi), 17 DAA” value came out at 93% in series [1] (test compound 25 ppm + Mero 0.1% v/v, tank mix with PGR Cycocel, ratio AI:PGR 1:20, 17 DAA); 90% in series [1] (test compound 25 ppm + Mero 0.1% v/v, tank mix with PGR Moddus, ratio AI:PGR 1:10, 17 DAA); 70% in series [1] (test compound 25 ppm + adjuvant Mero 0.1% v/v, no PGR, 17 days after application, Abbott). The mortality at 12.5 ppm in series [2] (12.5 ppm AI with Moddus, ratio AI:PGR 0.9:1, 7 d after application, read-out: Efficacy (% mortality) against brown plant hopper (Nilaparvata lugens)) amounted to 5%; in series [2] (12.5 ppm AI, no PGR, 7 d after application, read-out: Efficacy (% mortality) against brown plant hopper (Nilaparvata lugens)), 65%. In addition, the mortality at 25 ppm was determined as 10% in series [2] (25 ppm AI with Moddus, ratio AI:PGR 1.9:1, 7 d after application, read-out: Efficacy (% mortality) against brown plant hopper (Nilaparvata lugens)) and 37% in series [2] (25 ppm AI, no PGR, 7 d after application, read-out: Efficacy (% mortality) against brown plant hopper (Nilaparvata lugens)). For the same molecule, the mortality at 50 ppm in series [2] (50 ppm AI with Moddus, ratio AI:PGR 1.25:1, 7 d after application, read-out: Efficacy (% mortality) against brown plant hopper (Nilaparvata lugens)) worked out at 33%; in series [2] (50 ppm AI, no PGR, 7 d after application, read-out: Efficacy (% mortality) against brown plant hopper (Nilaparvata lugens)), 62%. The mortality at 100 ppm was determined as 77% in series [2] (100 ppm AI with Moddus, ratio AI:PGR 7.5:1, 7 d after application, read-out: Efficacy (% mortality) against brown plant hopper (Nilaparvata lugens)) and 80% in series [2] (100 ppm AI, no PGR, 7 d after application, read-out: Efficacy (% mortality) against brown plant hopper (Nilaparvata lugens)). For the same molecule, the mortality at 200 ppm in series [2] (200 ppm AI with Moddus, ratio AI:PGR 15:1, 7 d after application, read-out: Efficacy (% mortality) against brown plant hopper (Nilaparvata lugens)) is 87%; in series [2] (200 ppm AI, no PGR, 7 d after application, Abbott, read-out: Efficacy (% mortality) against brown plant hopper (Nilaparvata lugens)) it was 90%.

On to `CCOC(=O)OC1=C(c2cc(C)c(C)cc2Br)C(=O)N(C)C12CCN(OC)CC2`, for which the melting point fell in the range of 158 to 159 °C. `CON1CCC2(CC1)C(O)=C(c1cc(C)c(C)cc1C)C(=O)N2C`: the melting point was 183 to 186 °C.

Regarding `COCON1C(=O)C(c2cc(C)ccc2C)=C(OC(=O)CC(C)(C)C)C12CCN(OC)CC2`, the melting point lay within 93 to 95 °C. For `COCCON1C(=O)C(c2cc(Br)c(F)cc2C)=C(O)C12CCN(OC)CC2`, the melting point is 71 to 74 °C. Still for that read-out and setting: then `CCOC(=O)OC1=C(c2c(C)cc(C)cc2C)C(=O)N(CC)C12CCN(OC)CC2`, with 101 to 103 °C. Still for that read-out and setting: the figure for `CCOC(=O)OC1=C(c2cc(C)ccc2C)C(=O)N(C)C12CCN(OC)CC2` is 96 to 110 °C. `CCN1C(=O)C(c2c(C)cc(C)cc2C)=C(O)C12CCN(OC)CC2`: the melting point lay in the range of 218 to 221 °C. Same read-out and setting: then `COCCON1C(=O)C(c2cc(Br)c(C)cc2C)=C(O)C12CCN(OC)CC2`, with 63 to 64 °C. Regarding `CCOC(=O)OC1=C(c2c(C)cc(Cl)cc2C)C(=O)N(C)C12CCN(OC)CC2` [P1.29], the mortality at 12.5 ppm came to 80% in series [2] (read-out: Efficacy (% mortality) against brown plant hopper (Nilaparvata lugens), 12.5 ppm AI with Moddus, ratio AI:PGR 0.9:1, 7 d after application) and 98% in series [2] (read-out: Efficacy (% mortality) against brown plant hopper (Nilaparvata lugens), 12.5 ppm AI, no PGR, 7 d after application). In addition, the mortality at 25 ppm turned out to be 97% in series [2] (read-out: Efficacy (% mortality) against brown plant hopper (Nilaparvata lugens), 25 ppm AI with Moddus, ratio AI:PGR 1.9:1, 7 d after application) and 98% in series [2] (read-out: Efficacy (% mortality) against brown plant hopper (Nilaparvata lugens), 25 ppm AI, no PGR, 7 d after application). Besides, the mortality at 50 ppm in series [2] (read-out: Efficacy (% mortality) against brown plant hopper (Nilaparvata lugens), 50 ppm AI with Moddus, ratio AI:PGR 1.25:1, 7 d after application) is 98%; in series [2] (read-out: Efficacy (% mortality) against brown plant hopper (Nilaparvata lugens), 50 ppm AI, no PGR, 7 d after application) it was 100%. Further, the mortality at 100 ppm in series [2] (read-out: Efficacy (% mortality) against brown plant hopper (Nilaparvata lugens), 100 ppm AI with Moddus, ratio AI:PGR 7.5:1, 7 d after application) is 100%; in series [2] (read-out: Efficacy (% mortality) against brown plant hopper (Nilaparvata lugens), 100 ppm AI, no PGR, 7 d after application) it was 100%. Moreover, the mortality at 200 ppm in series [2] (read-out: Efficacy (% mortality) against brown plant hopper (Nilaparvata lugens), 200 ppm AI with Moddus, ratio AI:PGR 15:1, 7 d after application) is 100%; in series [2] (read-out: Efficacy (% mortality) against brown plant hopper (Nilaparvata lugens), 200 ppm AI, no PGR, 7 d after application, Abbott), 100%. With `CCOC(=O)OC1=C(c2c(F)ccc(C)c2Cl)C(=O)N(OCOC)C12CCN(OC)CC2`, the melting point fell in the range of 116 to 119 °C. On the same count and under the same terms, then `CON1CCC2(CC1)C(O)=C(c1c(C)cc(C)cc1C)C(=O)N2OCCOC1CCCCO1` (centres unmarked), with 135 to 137 °C; and `CCOC(=O)OC1=C(c2c(C)cc(Cl)cc2C)C(=O)N(OC)C12CCN(OC)CC2`, with 122 to 125 °C; and `COCON1C(=O)C(c2cc(C)ccc2C)=C(OC)C12CCN(OC)CC2`, with 91 to 93 °C. On to `CON1CCC2(CC1)C(O)=C(c1c(C)cc(Cl)cc1C)C(=O)N2OC`, for which the melting point was in the range of 88 to 92 °C. The same measure, in the same setting: then `COCON1C(=O)C(c2cc(Br)c(F)cc2C)=C(O)C12CCN(OC)CC2`, with 64 to 67 °C. Still for that read-out and setting: then `CON1CCC2(CC1)C(O)=C(c1cc(Br)c(C)cc1C)C(=O)N2C`, with 182 to 183 °C. The same measure, in the same setting: the figure for `CON1CCC2(CC1)C(O)=C(c1c(C)cc(C)cc1C)C(=O)N2OCC1CCCCC1` is 169 to 172 °C; for `COCON1C(=O)C(c2c(C)cc(-c3ccc(Cl)cc3)cc2C)=C(O)C12CCN(OC)CC2` it is 128 °C (dec.); for `CON1CCC2(CC1)C(O)=C(c1c(C)cc(C)cc1C)C(=O)N2CC1CC1` it is 223 to 225 °C. For `COCON1C(=O)C(c2c(F)ccc(C)c2Cl)=C(O)C12CCN(OC)CC2`, the melting point lay in the range of 155 to 158 °C. The same measure, in the same setting: the figure for `COCCON1C(=O)C(c2c(C)cc(Cl)cc2C)=C(O)C12CCN(OC)CC2` is 161 to 164 °C; for `CCOC(=O)OC1=C(c2cc(C)c(C)cc2Cl)C(=O)N(C)C12CCN(OC)CC2` it is 149 to 150 °C; for `CON1CCC2(CC1)C(O)=C(c1c(C)cc(Cl)cc1C)C(=O)N2OC1CCCO1` (centres unmarked) it is 137 to 139 °C. Still for that read-out and setting: then `COCON1C(=O)C(c2c(C)cc(Cl)cc2C)=C(O)C12CCN(OC)CC2`, with 176 to 178 °C; and `CON1CCC2(CC1)C(O)=C(c1cc(C)c(C)cc1Br)C(=O)N2C`, with 191 to 193 °C. Still for that read-out and setting: the figure for `CON1CCC2(CC1)C(O)=C(c1cc(Br)c(C)cc1C)C(=O)N2OC` is 86 to 87 °C.
